Source: patent US5998596A, “Inhibition of protein kinase activity by aptameric action of oligonucleotides” (The United States of America as represented by the …)
Entries after “also recorded” stand apart in the source; their conditions may differ. In the oligonucleotide strings, read from the 5' end, every base follows the letter of its sugar. An asterisk marks phosphorothioate; unmarked linkages are phosphodiester. Other units and linkages are bracketed, terminal groups are in braces. A string of capitals states the bases alone. d = 2'-deoxy (DNA)

Experiments:
[1] = system: cellular phosphotyrosine content of K562 cells; experiment: Western analysis of total cellular phosphotyrosine content after electroporation of K562 cells; type: cell-based, human; conditions: K562 cells electroporated with 100 μM ODN, one hour later
Method: One hundred micrograms of protein from cell lysates were separated on a 7% SDS polyacrylamide gel. Transfer was performed overnight at 50 volts, 4° C., in a 0.2 M glycine, 25 mM Tris, pH 8.3, 0.15% SDS, 20% methanol buffer, onto […] nitrocellulose (Schleicher and Schuell Inc.). For cellular phosphotyrosine blots, Western probing was performed as described previously, with modifications (SARTOR, et al, 1991). Briefly, membranes were blocked for 2 hours with 5% albumin in TTBS (20 mM Tris HCL, pH 7.6; 0.05% Tween 20; 0.9% sodium chloride), probed for 1 hour with antiphosphotyrosine antibody (Upstate Biotechnology Inc., Lake Placid, N.Y.) diluted 1:500 in TTBS, followed by rabbit anti-mouse antibody (Cappel Research Products) and then [^125 I] protein A Sepharose (Amersham Corp., Arlington Heights, Ill.). Membranes were exposed to Kodak X-OMAT AR film overnight at -70° C. with intensifying screens.
Electroporation was performed as described (40). Briefly, 1-5×10^6 cells in 1 ml of RPMI 1640 with 10% fetal calf serum were placed into 0.4 cm gap electroporation chambers and electroporated with a Cell-Porator Electroporation System 1 (all from GIBCO BRL, Grand Island, N.Y.) at 800 microfarrads, 300 volts, at room temperature. Cells were then incubated at 37° C. for 1 hour before manipulation.
In K562 cells p210^bcr-abl is a major kinase responsible for protein tyrosine phosphorylation (38, 39). Changes in enzyme activity are therefore reflected by changes in cellular phosphotyrosine content.

p210^bcr-abl kinase = experiment: Immunoprecipitation kinase assay of p210bcr-abl (autophosphorylation), ODN added to kinase reaction; type: biochemical, human; conditions: for Percent Remaining Activity of p210^bcr-abl kinase relative to control: ODN 1 μM, phosphorothioate capped, mean ± SE of three experiments; for inhibition of p210^bcr-abl kinase activity in vitro (in words): ODN at 1 μM added to the immunoprecipitated enzyme
Method: The p210^bcr-abl kinase, src kinase and cdc-2 kinase were immunoprecipitated from K562 cells. The p145^abl kinase was immunoprecipitated from PC3M cells, PDGF receptor kinase from 3T3 cells, and EGF receptor kinase from A431 cells. MAP kinase was utilized as a pure protein and lck kinase was immunoprecipitated from peripheral blood lymphocytes of a normal volunteer.
Cells were washed in phosphate buffered saline (PBS) and 0.5-5×10^6 cells were solubilized in 1 ml of the specified cell lysis buffers. Unless otherwise stated, all cell lysis buffers contained the following protease inhibitors: 20 μg/ml leupeptin, 1 μg/ml aprotinin, and 1 mM phenylmethylsulfonylfluroide. For p210^bcr-abl and […] immunoprecipitation, cells were lysed with ABL lysis buffer (25 mM imidazole, pH 7.2, 0.5% NP40, 50 mM NaCl, 1 mM Na3 VO4) and lysates were clarified at 14,000 g. 4° C. for 30 minutes. Cell lysis for all other proteins was performed according to the references describing the various immunoprecipitation kinase assays.
(§1) Immunoprecipitation kinase assays of p210^bcr-abl p145^abl were performed as described, with modifications (15). Briefly, for p210^bcr-abl, 1 μg of anti-bcr antibody (clone 7C6, Oncogene Science, Uniondale, N.Y.) was added to lysates prepared from 0.5-1×10^6 K562 cells. For p145^abl, 1 μg of anti-c-abl antibody (clone 24-21), which binds to the C-terminal domain of p145^abl, was added to lysates prepared from 5×10^6 PC3M cells. After incubating 1 hour at 4° C., complexes were precipitated by incubating with protein A-Sepharose coated with rabbit anti-mouse immunoglobulin (Cappel Research Products, Durham, N.C.) for 30 minutes. The complexes were then washed as follows: ABL lysis buffer×2, PBS×1, and ABL assay buffer×1 (24 mM imidazole, pH 7.2, 1 mg/ml bovine serum albumin, and 10 mM MnCl). For p145^abl assays ABL assay buffer contained 20 mM MnCl. To access the activity of p210^bcr-abl on substrate phosphorylation, acid inactivated enolase (Sigma Chemical Co., St. Louis, Mo.) was added as described (15).
(§2) ODNs were added to kinase reaction buffers not more than 5 minutes prior to the addition of ATP. Reactions were initiated by the addition of [γ^-32 P] ATP (3000 Ci/mmole; Amersham Corp., Arlington Heights, Ill.) and quenched by the addition of 5× gel loading buffer and heating to 95° C. Kinase reactions were run for 1-10 minutes at room temperature, except for EGFR, p145^abl, and MAP kinase, which were run at 30° C. The products were then electrophoresed on SDS-polyacrylamide gels: 7% for p210^bcr-abl, EGFR, and PDGFR, 8% for p145^abl, 10% for src, lck, and cdc-2 kinase, and 12% for MAP kinase. Gels were dried and reaction products were visualized by direct autoradiography at -70° C. with Kodak X-OMAT AR film. To determine the inhibitory concentration 50, i.e., the concentration required to inhibit enzyme activity by 50% (IC50) and Ki values, gel slices containing the band of interest were excised and analyzed by Cerenkov counting.

[2] = system: p210^bcr-abl kinase in K562 cells; experiment: Immunoprecipitation kinase assay of p210bcr-abl from ODN treated K562 cells; type: cell-based, human; conditions: K562 cells incubated 3 days with 50 μM ODN, washed
Method: as §1, §2
The effects of ODN1 on a cellular system were assessed. […] After 3 days, cells were washed and p210^bcr-abl kinase activity was measured. […] Neither cellular p210^bcr-abl protein content nor cell growth was affected by ODN treatment (data not shown).

K562 cells = experiment: K562 colony formation in soft agar; type: cell-based, human; conditions: 50 μM ODN, two weeks, not electroporated
Method: K562, NIH 3T3, and A431 cells were purchased from the American Type Culture Collection (Rockville, Md.). PC3M prostate cancer cells were a generous gift from J. Trepel (National Institutes of Health, Bethesda, Md.). K562 and PC3M cells were cultured in RPMI 1640 with 10% heat-inactivated fetal bovine serum (FBS; GIBCO BRL, Grand Island, N.Y.) while NIH 3T3 and A431 cells were cultured in Dulbecco's modified Eagle's medium (Biofluids, Rockville, Md.) with 10% heat inactivated FBS. Cells were maintained at 37° C., 6% carbon dioxide with biweekly media changes. For soft agar cloning, cells were suspended in 0.3% low melting temperature agarose (SeaPlaque FMC BioProducts, Rockland, Me.) in RPMI 1640 with 10% total calf serum and maintained as above.
To evaluate the effects of these various ODNs of K562 cell growth, both growth in liquid culture and growth in soft agar were examined. […] Cells were electroporated in the presence of 50 μM ODN and kept in liquid culture. For soft agar cloning experiments, cells were not electroporated, but were grown in the presence of 50 μM ODN for two weeks. Liquid cultures were replenished with fresh medium containing 50 μM ODN. Two weeks following incubation in liquid culture, the number of trypan blue-excluding cells was determined. No effect on cell growth in liquid culture could be observed with any ODN tested (data not shown).

PDGF receptor (PDGFR) = experiment: inhibition; conditions: PS, two linkages at each of 5' and 3' ends, rest phosphodiester; autophosphorylation
MAP kinase = experiment: inhibition; conditions: PS, two linkages at each of 5' and 3' ends, rest phosphodiester; 30 C
[3] = listed as BCR-AS all-phosphorothioate

5' CCGACCACTTCCGAGTACTAG-3' (chemistry not given here) [ABL-1bSCR, the scrambled version of ABL-1bAS]
total cellular protein phosphotyrosine content [1]: less marked effects

5' GGCCGTGCAGCTCGCACCGGC 3' (chemistry not given here) [ODN1C, scrambled version of ODN1]
Percent Remaining Activity of p210^bcr-abl kinase relative to control (p210^bcr-abl kinase): 74 ± 15%

5' GGCGGCCGCGCTGCAACCCGT 3' (chemistry not given here) [ODN1A, scrambled version of ODN1]
Percent Remaining Activity of p210^bcr-abl kinase relative to control (p210^bcr-abl kinase): 42 ± 6.9%

5' GGCGGCGGCGGCGGCGGCGGC 3' (chemistry not given here) [SEQ ID NO.: 11, 21mer consisting of seven tandem GGC repeats]
inhibition of p210^bcr-abl kinase activity in vitro (in words) (p210^bcr-abl kinase): inhibitory activity equivalent to ODN1

5' TCCGCGAACCCGGTGCGCCGG 3' (chemistry not given here) [ODN1D, scrambled version of ODN1 / BCR-AS]
p210^bcr-abl kinase activity of ODN treated K562 cells [2]: did not inhibit kinase activity
ability to form colonies in soft agar (K562 cells): inhibited the ability of these cells to form colonies in soft agar
Percent Remaining Activity of p210^bcr-abl kinase relative to control (p210^bcr-abl kinase): 79 ± 79%
inhibition of p210^bcr-abl kinase activity in vitro (in words) (p210^bcr-abl kinase): does not inhibit kinase activity
total cellular protein phosphotyrosine content ([1]; listed as BCR-SCR): effectively lowered protein phosphotyrosine content; also recorded: reduced protein phosphotyrosine content

5' TGCCCAACGTCGCGCCGGCGG 3' (chemistry not given here) [ODN1B, scrambled version of ODN1]
Percent Remaining Activity of p210^bcr-abl kinase relative to control (p210^bcr-abl kinase): 59 ± 6.4%

5'-CGCTGAAGTTTTGAACTCTGC-3' (chemistry not given here) [B/A-AS, spans the bcr-abl fusion region, complementary to 11 bcr and 10 abl nucleotides of the mature fusion transcript]
p210^bcr-abl kinase activity of ODN treated K562 cells [2]: inhibited kinase activity
ability to form colonies in soft agar (K562 cells): failed to effect the cloning ability of the cells
total cellular protein phosphotyrosine content [1]: less marked effects; also recorded: no effect

5'-GTCCACCATGGCGCGGCCGGC-3' [ODN1 2'-methoxy modified sugars] (2'-O-methyl modified sugars, pattern not given here)
inhibition of p210^bcr-abl kinase activity in vitro (in words) (p210^bcr-abl kinase): least effective

5'-GTCCACCATGGCGCGGCCGGC-3' [ODN1 all phosphodiester] (unmodified DNA)
inhibition of p210^bcr-abl kinase activity in vitro (in words) (p210^bcr-abl kinase): intermediate potencies
total cellular protein phosphotyrosine content ([1]; listed as BCR-AS phosphodiester): equally effective

5'-GTCCACCATGGCGCGGCCGGC-3' [ODN1 all phosphorothioate] (DNA dG*dT*dC*dC*dA*dC*dC*dA*dT*dG*dG*dC*dG*dC*dG*dG*dC*dC*dG*dG*dC)
inhibition of p210^bcr-abl kinase activity in vitro (in words) (p210^bcr-abl kinase): most potent inhibitor
inhibition of p210^bcr-abl kinase activity in vitro (in words) (p210^bcr-abl kinase; [3]): most effective inhibitor
total cellular protein phosphotyrosine content [1, 3]: no effect

5'-TCCAGGCTGCTGCCCCATAAA-3' (chemistry not given here) [ABL-1bAS, complementary to nucleotides -3 to +18 of the abl lb mRNA]
total cellular protein phosphotyrosine content [1]: less marked effects

5'-TGTACGTCCGGCTTACTAGTA-3' (chemistry not given here) [B/A-SCR, scrambled version of the B/A ODN]
p210^bcr-abl kinase activity of ODN treated K562 cells [2]: did
ability to form colonies in soft agar (K562 cells): inhibited the ability of these cells to form colonies in soft agar
total cellular protein phosphotyrosine content [1]: effectively lowered protein phosphotyrosine content; also recorded: reduced protein phosphotyrosine content

GGCG
inhibition of p210^bcr-abl kinase activity in vitro (in words) (p210^bcr-abl kinase): no inhibitory activity

GTCCACCATGGCGCGGCCGGC [ODN1 (BCR-AS), phosphorothioate capped]
IC50 (PDGF receptor (PDGFR)): 4.4 µM
IC50 (MAP kinase): > 100 µM
